Test results: patent US7217730B2, “Method for the use of pyranoindole derivatives to treat infection with Hepatitis C virus” (Wyeth, priority 2002, dated 2007)
Where two headings read alike, the source gives them in different places.

Assays:
[1] = target: T1, NS5B from the BK strain (genotype 1b) (Hepatitis C virus genotype 1b, UniProt P26663); assay: Hepatitis C polymerase inhibition, NS5B BK strain, 33P-GTP filter assay; assay type: biochemical; settings: for IC50: NS5B BK strain; for inhibition at 20 µM: read-out: HCV pol % inh at 20 μM
T1 construct: NS5B from the BK strain (genotype 1b) is expressed in E. coli as a protein in which the 21 C-terminal amino acids are replaced; made in house; host or cells: E. coli
Outline: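 Radiolabelled RNA synthesis was measured by filter capture and scintillation counting after EDTA stop. His-tagged, C-terminally truncated (Δ21) genotype 1b BK NS5B from E. coli, pre-exposed to compound for 15 min, copied a self-primed RNA template (~3 nM) with α-[33P]-GTP for 2 h at room temperature.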

[2] = target: BB7 (RNA-dependent RNA polymerase hepatitis C virus protein sequence derived from HCV replicon) (Hepatitis C virus genotype 1b, UniProt Q9WMX2); assay: Hepatitis C polymerase inhibition, BB7 sequence; assay type: biochemical; settings: Table 1B
[3] = Table 1A, read-out: HCV pol BK IC50

Chain of BB7 (RNA-dependent RNA polymerase hepatitis C virus protein sequence derived from HCV replicon) (Q9WMX2 2420-3010): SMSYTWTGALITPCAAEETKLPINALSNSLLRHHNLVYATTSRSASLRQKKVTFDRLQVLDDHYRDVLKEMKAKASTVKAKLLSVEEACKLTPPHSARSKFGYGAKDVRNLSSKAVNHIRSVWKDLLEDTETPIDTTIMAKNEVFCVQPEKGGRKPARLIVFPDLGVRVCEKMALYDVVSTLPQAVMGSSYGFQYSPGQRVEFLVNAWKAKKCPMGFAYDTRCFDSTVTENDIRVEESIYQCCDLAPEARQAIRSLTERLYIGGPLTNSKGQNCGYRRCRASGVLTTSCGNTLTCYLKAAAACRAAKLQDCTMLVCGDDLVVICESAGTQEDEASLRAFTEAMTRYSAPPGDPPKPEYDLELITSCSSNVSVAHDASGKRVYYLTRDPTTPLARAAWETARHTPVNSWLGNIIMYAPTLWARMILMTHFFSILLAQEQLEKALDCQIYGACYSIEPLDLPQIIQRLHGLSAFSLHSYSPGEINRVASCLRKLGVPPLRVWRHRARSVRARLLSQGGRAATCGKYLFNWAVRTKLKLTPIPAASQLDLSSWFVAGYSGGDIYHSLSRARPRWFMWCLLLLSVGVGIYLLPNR
T1 sequence (P26663 2420-2989): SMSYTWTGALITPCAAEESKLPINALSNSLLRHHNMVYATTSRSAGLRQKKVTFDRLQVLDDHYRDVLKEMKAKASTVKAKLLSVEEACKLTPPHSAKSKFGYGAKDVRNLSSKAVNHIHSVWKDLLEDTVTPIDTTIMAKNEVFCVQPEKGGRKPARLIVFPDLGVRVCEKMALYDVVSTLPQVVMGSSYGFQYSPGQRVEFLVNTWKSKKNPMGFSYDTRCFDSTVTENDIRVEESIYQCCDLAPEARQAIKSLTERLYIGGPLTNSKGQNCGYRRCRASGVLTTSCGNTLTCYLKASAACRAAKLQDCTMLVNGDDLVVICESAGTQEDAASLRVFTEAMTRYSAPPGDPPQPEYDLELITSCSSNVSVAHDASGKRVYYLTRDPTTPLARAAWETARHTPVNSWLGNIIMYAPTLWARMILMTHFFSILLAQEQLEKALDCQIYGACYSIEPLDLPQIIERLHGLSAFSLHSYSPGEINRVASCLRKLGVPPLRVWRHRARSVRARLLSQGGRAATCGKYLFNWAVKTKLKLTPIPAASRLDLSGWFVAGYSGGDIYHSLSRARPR

`CCCCC1(CC(=O)O)OCCc2c1[nH]c1c(CC)ccc(C#N)c21` (stereo not drawn) [Example 296, (1-butyl-5-cyano-8-ethyl-1,3,4,9-tetrahydropyrano[3,4-b]indol-1-yl)acetic acid] was tested, and the IC50 ([1]; Table 1B, read-out: BK IC50) was 7.2 µM and the IC50 [2] was 6.3 µM.
`O=C(O)CC1(CCC(F)(F)F)OCCc2c1[nH]c1c(Cl)ccc(Cl)c21` (stereo not drawn) [Example 245, [5,8-dichloro-1-(3,3,3-trifluoropropyl)-1,3,4,9-tetrahydropyrano[3,4-b]indol-1-yl]acetic acid] was tested, and the IC50 ([1]; Table 1B, read-out: BK IC50) was 0.4 µM and the IC50 [2] was 0.74 µM.
With `N#Cc1ccc(Cl)c2[nH]c3c(c12)CCOC3(CC(=O)O)C1CCC1` (stereo not drawn) [Example 327, (8-chloro-5-cyano-1-cyclobutyl-1,3,4,9-tetrahydropyrano[3,4-b]indol-1-yl)acetic acid] the IC50 ([1]; Table 1B, read-out: BK IC50) was 0.8 µM and the IC50 [2] was 1.7 µM.
`Cc1ccc([N+](=O)[O-])c2c3c([nH]c12)C(CC(=O)O)(C1CCC1)OCC3` (stereo not drawn) [Example 299, (1-cyclobutyl-8-methyl-5-nitro-1,3,4,9-tetrahydropyrano[3,4-b]indol-1-yl]acetic acid] showed an IC50 ([1]; Table 1B, read-out: BK IC50) of 0.5 µM and an IC50 [2] of 0.9 µM.
`COCCC1(CC(=O)O)OCCc2c1[nH]c1ccc(Cl)c(Cl)c21` (stereo not drawn) [Example 238, [5,6-dichloro-1-(2-methoxyethyl)-1,3,4,9-tetrahydropyrano[3,4-b]indol-1-yl]acetic acid] gave an IC50 ([1]; Table 1B, read-out: BK IC50) of 19 µM and an IC50 [2] of over 30 µM.
With `CCOCC1(CC(=O)O)OCCc2c1[nH]c1cc(Cl)c(Cl)cc21` (stereo not drawn) [Example 241, (6,7-dichloro-1-ethoxymethyl-1,3,4,9-tetrahydropyrano[3,4-b]indol-1-yl)acetic acid] the IC50 [2] was over 30 µM.
`CC1(CC(=O)O)OCCc2c1[nH]c1c(Cl)ccc(Cl)c21` (stereo not drawn) [Example 242, (5,8-dichloro-1-methyl-1,3,4,9-tetrahydropyrano[3,4-b]indol-1-yl)acetic acid] gave an IC50 [2] of 18 µM.
For `CC(C)C1(CC(=O)O)OCCc2c1[nH]c1c(F)ccc(F)c21` (stereo not drawn) [Example 125, (5,8-difluoro-1-isopropyl-1,3,4,9-tetrahydropyrano[3,4-b]indol-1-yl)acetic acid], the inhibition at 20 µM ([1]; Table 1A, 20 μM compound) was 73% and the IC50 [1, 3] was over 20 µM.
Molecule `O=C(O)CC1(c2ccc(C(=O)O)cc2)OCCc2c1[nH]c1c(Br)cccc21` (stereo not drawn) [Example 87, 4-[8-bromo-1-(carboxymethyl)-1,3,4,9-tetrahydropyrano[3,4-b]indol-1-yl]benzoic acid] has an inhibition at 20 µM ([1]; Table 1A, 20 μM compound) of 42% and an IC50 [1, 3] of over 20 µM.
With `COCC1(CC(=O)O)OCCc2c1[nH]c1c(Cl)ccc(C(F)(F)F)c21` (stereo not drawn) [Example 264, (8-chloro-1-methoxymethyl-5-trifluoromethyl-1,3,4,9-tetrahydropyrano[3,4-b]indol-1-yl)acetic acid] the IC50 ([1]; Table 1B, read-out: BK IC50) was over 30 µM.
For `Cc1cc(F)c(C#N)c2c3c([nH]c12)C(CC(=O)O)(C(C)C)OCC3` (stereo not drawn) [Example 207, (5-cyano-6-fluoro-1-isopropyl-8-methyl-1,3,4,9-tetrahydropyrano[3,4-b]indol-1-yl)acetic acid], the inhibition at 20 µM ([1]; Table 1A, 20 μM compound) was 76% and the IC50 [1, 3] was 0.58 µM.
`CCCC1(CC(=O)O)OCCc2c1[nH]c1cccc(-c3ccc(OC)cc3)c21` (stereo not drawn) [Example 33, [5-(4-methoxyphenyl)-1-propyl-1,3,4,9-tetrahydropyrano[3,4-b]indol-1-yl]acetic acid] gave an inhibition at 20 µM ([1]; Table 1A, 20 μM compound) of under 5% and an IC50 [1, 3] of over 20 µM.
For `CCCC1(CC(=O)O)OCCc2c1[nH]c1c(-c3ccc(Cl)cc3Cl)cccc21` (stereo not drawn) [Example 93, [8-(2,4-dichlorophenyl)-1-propyl-1,3,4,9-tetrahydropyrano[3,4-b]indol-1-yl]acetic acid], the inhibition at 20 µM ([1]; Table 1A, 20 μM compound) was 64% and the IC50 [1, 3] was over 20 µM.
`CC(C)C1(CC(=O)O)OCCc2c1[nH]c1c(Cl)ccc(C(F)(F)F)c21` (stereo not drawn) [Example 132, [8-chloro-1-isopropyl-5-(trifluoromethyl)-1,3,4,9-tetrahydropyrano[3,4-b]indol-1-yl]acetic acid] was tested, and the inhibition at 20 µM ([1]; Table 1A, 20 μM compound) was 78% and the IC50 [1, 3] was 9.5 µM.
`CCCCC1(CC(=O)O)OCCc2c1[nH]c1c(F)cc(C)c(Br)c21` (stereo not drawn) [Example 167, (5-bromo-1-butyl-8-fluoro-6-methyl-1,3,4,9-tetrahydropyrano[3,4-b]indol-1-yl)acetic acid] gave an inhibition at 20 µM ([1]; Table 1A, 20 μM compound) of 80% and an IC50 [1, 3] of 3 µM.
For `CCCC1(CC(=O)O)OCCc2c1[nH]c1c(C)ccc(C(=O)NC)c21` (stereo not drawn) [Example 224, (8-methyl-5-methylcarbamoyl-1-propyl-1,3,4,9-tetrahydropyrano[3,4-b]indol-1-yl)acetic acid], the IC50 [1, 3] was over 20 µM.
`CCCC1(CC(=O)O)OCCc2c1[nH]c1cccc(-c3ccc4ccccc4c3)c21` (stereo not drawn) [Example 38, [5-(2-naphthyl)-1-propyl-1,3,4,9-tetrahydropyrano[3,4-b]indol-1-yl]acetic acid] showed an inhibition at 20 µM ([1]; Table 1A, 20 μM compound) of 11% and an IC50 [1, 3] of over 20 µM.
`Cc1cc(F)c(Br)c2c3c([nH]c12)C(CC(=O)O)(C(C)C)OCC3` (stereo not drawn) [Example 202, (5-bromo-6-fluoro-1-isopropyl-8-methyl-1,3,4,9-tetrahydropyrano[3,4-b]indol-1-yl)acetic acid] gave an inhibition at 20 µM ([1]; Table 1A, 20 μM compound) of 82% and an IC50 [1, 3] of 2.9 µM.
Molecule `Cc1cc(F)c2[nH]c3c(c2c1C#N)CCOC3(CC(=O)O)c1ccc(C(=O)O)cc1` (stereo not drawn) [Example 172, 4-[1-(carboxymethyl)-5-cyano-8-fluoro-6-methyl-1,3,4,9-tetrahydropyrano[3,4-b]indol-1-yl]benzoic acid] has an inhibition at 20 µM ([1]; Table 1A, 20 μM compound) of 74% and an IC50 [1, 3] of 1.7 µM.
Work on `CCCC1(CC(=O)O)OCCc2c1[nH]c1cccc(C#N)c21` (stereo not drawn) [Example 58, (5-cyano-1-propyl-1,3,4,9-tetrahydro-pyrano[3,4-b]indol-1-yl)acetic acid] yielded an inhibition at 20 µM ([1]; Table 1A, 20 μM compound) of 78% and an IC50 [1, 3] of 6.9 µM.
`CCCC1(CC(=O)O)OCCc2c1[nH]c1cccc(-c3ccco3)c21` (stereo not drawn) [Example 40, [5-(2-furyl)-1-propyl-1,3,4,9-tetrahydropyrano[3,4-b]indol-1-yl]acetic acid] gave an inhibition at 20 µM ([1]; Table 1A, 20 μM compound) of 27% and an IC50 [1, 3] of over 20 µM.
Work on `CCC[C@@]1(CC(=O)O)OCCc2c1[nH]c1c(C)cc(F)c(C#N)c21` [Example 12, [(S)-5-cyano-6-fluoro-8-methyl-1-propyl-1,3,4,9-tetrahydropyrano[3,4-b]indol-1-yl]acetic acid] yielded an IC50 [1, 3] of 0.6 µM.
`CCCC1(CC(=O)O)OCCc2c1[nH]c1c(F)ccc(C#N)c21` (stereo not drawn) [Example 4, (5-cyano-8-fluoro-1-propyl-1,3,4,9-tetrahydro-pyrano[3,4-b]indol-1-yl)acetic acid] was tested, and the IC50 [1, 3] was 1 µM.
For `Cc1cc(Cl)c2[nH]c3c(c2c1Br)CCOC3(CC(=O)O)c1ccccc1` (stereo not drawn) [Example 179, (5-bromo-8-chloro-6-methyl-1-phenyl-1,3,4,9-tetrahydropyrano[3,4-b]indol-1-yl)acetic acid], the inhibition at 20 µM ([1]; Table 1A, 20 μM compound) was 15% and the IC50 [1, 3] was over 5 µM.
`CCCC1(CC(=O)O)OCCc2c1[nH]c1c(F)ccc(-c3ccccc3)c21` (stereo not drawn) [Example 147, (8-fluoro-5-phenyl-1-propyl-1,3,4,9-tetrahydropyrano[3,4-b]indol-1-yl)acetic acid] gave an inhibition at 20 µM ([1]; Table 1A, 20 μM compound) of 34%.
Work on `CCCC1(CC(=O)O)OCCc2c1[nH]c1c(Cl)cc(C)c(I)c21` (stereo not drawn) [Example 217, (8-chloro-5-iodo-6-methyl-1-propyl-1,3,4,9-tetrahydropyrano[3,4-b]indol-1-yl)acetic acid] yielded an inhibition at 20 µM ([1]; Table 1A, 20 μM compound) of 88% and an IC50 [1, 3] of 0.63 µM.
`CCCC1(CC(=O)O)OCCc2c1[nH]c1c(Br)cccc21` (stereo not drawn) [Example 82, (8-bromo-1-propyl-1,3,4,9-tetrahydropyrano[3,4-b]indol-1-yl)acetic acid] showed an inhibition at 20 µM ([1]; Table 1A, 20 μM compound) of 73% and an IC50 [1, 3] of 9.2 µM.
In the case of `CC1(CC(=O)O)OCCc2c1[nH]c1c(Cl)cc(Cl)c(Cl)c21` (stereo not drawn) [Example 154, (5,6,8-trichloro-1-methyl-1,3,4,9-tetrahydropyrano[3,4-b]indol-1-yl)acetic acid], the inhibition at 20 µM ([1]; Table 1A, 20 μM compound) is reported as 22% and the IC50 [1, 3] is reported as 22.4 µM.
`CCCC1(CC(=O)O)OCCc2c1[nH]c1c(Cl)cc(Cl)cc21` (stereo not drawn) [Example 101, (6,8-dichloro-1-propyl-1,3,4,9-tetrahydropyrano[3,4-b]indol-1-yl)acetic acid] gave an inhibition at 20 µM ([1]; Table 1A, 20 μM compound) of 89% and an IC50 [1, 3] of 1.5 µM.
Molecule `CCCC1(CC(=O)O)OCCc2c1[nH]c1c(-c3cccc(N)c3)cccc21` (stereo not drawn) [Example 97, [8-(3-aminophenyl)-1-propyl-1,3,4,9-tetrahydropyrano[3,4-b]indol-1-yl]acetic acid] has an inhibition at 20 µM ([1]; Table 1A, 20 μM compound) of 21% and an IC50 [1, 3] of over 20 µM.
“(1-propyl-8-thien-2-yl-1,3,4,9-tetrahydropyrano[3,4-b]indol-1-yl)acetic acid [Example 95]” was tested, and the “HCV pol % inh at 20 μM” value ([1]; Table 1A, 20 μM compound) was 68% and the IC50 [1, 3] was 14.4 µM.
Molecule `CCCCC1(CC(=O)O)OCCc2c1[nH]c1c(Cl)cccc21` (stereo not drawn) [Example 76, (1-butyl-8-chloro-1,3,4,9-tetrahydropyrano[3,4-b]indol-1-yl)acetic acid] has an inhibition at 20 µM ([1]; Table 1A, 20 μM compound) of 29% and an IC50 [1, 3] of over 20 µM.
In the case of `Cc1cc(Cl)c2[nH]c3c(c2c1Br)CCOC3(CC(=O)O)C(C)C` (stereo not drawn) [Example 176, (5-bromo-8-chloro-1-isopropyl-6-methyl-1,3,4,9-tetrahydropyrano[3,4-b]indol-1-yl)acetic acid], the inhibition at 20 µM ([1]; Table 1A, 20 μM compound) is reported as 49% and the IC50 [1, 3] is reported as over 5 µM.
In the case of `C/C=C/CCC1(CC(=O)O)OCCc2c1[nH]c1c(Cl)cc(Cl)c(Cl)c21` (stereo not drawn) [Example 159, {5,6,8-trichloro-1-[(3E)-pent-3-enyl]-1,3,4,9-tetrahydropyrano[3,4-b]indol-1-yl}acetic acid], the inhibition at 20 µM ([1]; Table 1A, 20 μM compound) is reported as 36% and the IC50 [1, 3] is reported as over 20 µM.
In the case of `CC(C)C1(CC(=O)O)OCCc2c1[nH]c1c(Cl)cc(Cl)cc21` (stereo not drawn) [Example 102, (6,8-dichloro-1-isopropyl-1,3,4,9-tetrahydropyrano[3,4-b]indol-1-yl)acetic acid], the inhibition at 20 µM ([1]; Table 1A, 20 μM compound) is reported as 51% and the IC50 [1, 3] is reported as 21.7 µM.
